The values below come from ChEMBL document CHEMBL5360672, “Identification of Novel Dual-Target Estrogen Receptor α Degraders with Tubulin Inhibitory Activity for the Treatment of Endocrine-Resistant Breast Cancer” (J Med Chem, 2023).

pIC50: −log10 of the molar value. Activity calls are given as the source filed them. The calls are words filed in the database; no cut-off is given here.

Data set [1] addresses T1, Estrogen receptor (Homo sapiens) (UniProt P03372).
T1 sequence (whole entry): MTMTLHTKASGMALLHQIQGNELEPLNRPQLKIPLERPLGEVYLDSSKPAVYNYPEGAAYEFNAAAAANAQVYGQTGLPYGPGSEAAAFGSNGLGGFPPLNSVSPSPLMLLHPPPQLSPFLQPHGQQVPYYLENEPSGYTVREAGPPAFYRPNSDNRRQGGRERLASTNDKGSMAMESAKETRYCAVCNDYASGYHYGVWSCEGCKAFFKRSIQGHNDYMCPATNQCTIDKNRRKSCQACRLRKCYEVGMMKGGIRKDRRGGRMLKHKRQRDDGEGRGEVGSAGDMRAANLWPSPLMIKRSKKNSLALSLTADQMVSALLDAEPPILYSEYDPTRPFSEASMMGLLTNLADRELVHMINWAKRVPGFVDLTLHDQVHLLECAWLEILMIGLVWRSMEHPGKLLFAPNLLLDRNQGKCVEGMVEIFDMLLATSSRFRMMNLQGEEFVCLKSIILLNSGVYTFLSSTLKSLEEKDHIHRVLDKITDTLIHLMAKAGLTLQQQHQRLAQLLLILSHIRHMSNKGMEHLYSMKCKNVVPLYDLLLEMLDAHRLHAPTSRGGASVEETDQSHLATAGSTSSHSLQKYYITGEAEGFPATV
In words: Binding affinity to human ERalpha assessed as relative binding affinity incubated under vibration for 1 min followed by 2 hrs incubation under dark condition by fluorescence polarization assay relative to estradiol. Particulars: time 121.0 min.

Data set [2] has as its target Estrogen receptor beta (Homo sapiens) (UniProt Q92731). Description: Binding affinity to human ERbeta assessed as relative binding affinity incubated under vibration for 1 min followed by 2 hrs incubation under dark condition by fluorescence polarization assay relative to estradiol. Particulars: time 121.0 min.
The species named for the next data set is Homo sapiens. In words: Selectivity ratio of relative binding affinity for human ERalpha to relative binding affinity to human ERbeta.
Another data set concerns MCF7. Description: Antiproliferative activity against ERalpha positive human MCF7 cells assessed as inhibition of cell proliferation incubated for 72 hrs by CCK8 assay. Format: functional, cell-based. Particulars: MCF7, 72 h. A general note: Tetrazolium assays rely on reduction of a dye to a coloured formazan, in cell work by metabolically active cells.
Data set [3] concerns T47D. Description: Antiproliferative activity against ERalpha positive human T47D cells assessed as inhibition of cell proliferation incubated for 72 hrs by CCK8 assay. Format: functional, cell-based.
Data set [4] is described as follows: Cytotoxicity against human MCF-10A cells assessed as inhibition of cell proliferation incubated for 72 hrs by CCK8 assay. The format is toxicity, cell-based.
Data set [5] is described as follows: Selectivity index, ratio of IC50 for cytotoxicity against human MCF-10A cells to IC50 for antiproliferative activity against human MCF7 cells. The format is toxicity, cell-based. The following applies: MCF-10A cells and MCF7 cells, read-out: Ratio IC50.
The test system of a further data set is MDA-MB-231. Description: Antiproliferative activity against ERalpha negative human MDA-MB-231 cells assessed as inhibition of cell proliferation incubated for 72 hrs by CCK8 assay. The format is functional, cell-based. Particulars: MDA-MB-231, 72 h.
For data set [6], the target named is T1, Estrogen receptor (Homo sapiens). In words: Induction of ERalpha degradation in human MCF7 cells at 5 uM incubated for 24 hrs by Western blot analysis. Format: cell-based. (A western blot detects proteins with antibodies after separation by electrophoresis.)
Another data set concerns the target Tubulin (Homo sapiens) (UniProt P68371+Q9H4B7+P0DPH7+P68366+Q13509+Q71U36+P04350+Q3ZCM7+P07437+P68363+Q9BQE3+Q6PEY2+Q13885+Q9BVA1+Q9BUF5). Description: Inhibition of tubulin polymerization (unknown origin) at 30 uM incubated for 60 mins by microplate reader analysis. Format: protein-complex assay.
Data set [7] is described as follows: Antiproliferative activity against human Tamoxifen-resistant LCC2 cells assessed as inhibition of cell proliferation incubated for 72 hrs by CCK8 assay. Format: functional, cell-based.
Data set [8] relates to T47D. Description: Antiproliferative activity against human T47D cells harboring ERalpha D538G mutant assessed as inhibition of cell proliferation incubated for 72 hrs by CCK8 assay. The format is functional, cell-based.
Data set [9] concerns T47D. In words: Antiproliferative activity against human T47D cells harboring ERalpha Y537S mutant assessed as inhibition of cell proliferation incubated for 72 hrs by CCK8 assay. The format is functional, cell-based.
In data set [10] the target is T1, Estrogen receptor (Homo sapiens). Description: Induction of ERalpha degradation in human MCF7 cells at 5 uM incubated for 24 hrs by Western blot analysis relative to SeCN-OBHSA derivatives. Format: cell-based.

Chain of Estrogen receptor beta (Homo sapiens) (Q92731 whole entry): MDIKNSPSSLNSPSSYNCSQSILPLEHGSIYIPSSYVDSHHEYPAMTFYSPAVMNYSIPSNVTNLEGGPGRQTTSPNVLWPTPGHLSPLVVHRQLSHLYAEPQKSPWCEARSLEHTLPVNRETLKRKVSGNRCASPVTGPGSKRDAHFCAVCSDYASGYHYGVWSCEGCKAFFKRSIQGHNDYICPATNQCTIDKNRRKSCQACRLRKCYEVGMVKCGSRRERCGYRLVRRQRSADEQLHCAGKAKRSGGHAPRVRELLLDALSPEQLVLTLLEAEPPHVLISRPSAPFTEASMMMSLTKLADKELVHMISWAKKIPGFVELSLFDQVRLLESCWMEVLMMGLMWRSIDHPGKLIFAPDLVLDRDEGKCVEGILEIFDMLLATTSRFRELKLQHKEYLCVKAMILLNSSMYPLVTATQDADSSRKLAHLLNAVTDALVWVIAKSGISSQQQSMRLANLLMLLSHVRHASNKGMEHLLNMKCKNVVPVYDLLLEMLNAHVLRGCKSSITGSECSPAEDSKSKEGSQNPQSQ

As to `N#C[Se]CCCCCC(=O)Nc1ccccc1`, the RBA in data set [1] is 0.04%; in [2], 0.01%. Also, the Selectivity ratio in the data set listed under Homo sapiens came out at 7. Moreover, the pIC50 – broadly, −log10 of the IC50, conventionally taken in molar units – in the data set with MCF7 is 5.45; in the data set on T47D [3] it was 5.37; in the data set on MDA-MB-231 it was 6.44. The IC50 (usually the concentration that inhibits the measured activity by half) at 72 h in [4] came out at 2.26 µM. The selectivity ratio in [5] is 0.64. In addition, the outcome in [6] was inactive. Also, at Tubulin (Homo sapiens), the “tubulin polymerization inhibition (active/not active)” value was “Active”.
Turning to `COc1ccc(N(CC(F)(F)F)S(=O)(=O)C2CC3OC2C(c2ccc(O)cc2)=C3c2ccc(O)cc2)cc1` (stereo not drawn), the RBA was determined as 0.76% in data set [1] and 0.06% in data set [2]. Further, the Selectivity ratio in the data set listed under Homo sapiens was found to be 12.7. Besides, the pIC50 is 6.64 in the data set with MCF7; 5.16 in the data set on T47D [3]; 5.29 in data set [7]; 5.14 in the data set on T47D [8]; 4.90 with T47D [9]. The IC50 at 72 h in data set [4] is 20.4 µM. For the same molecule, the selectivity ratio in [5] is 88.6. Further, the “tubulin polymerization inhibition (active/not active)” value on Tubulin (Homo sapiens) was “inactive”.
In the case of `COc1cccc(N(CC(F)(F)F)S(=O)(=O)C2CC3OC2C(c2ccc(NC(=O)CCCCC[Se]C#N)cc2)=C3c2ccc(O)cc2)c1` (stereo not drawn), the RBA in data set [1] came out at 1.44%; in data set [2], 0.13%. The Selectivity ratio in the data set listed under Homo sapiens was determined as 11.1. For the same molecule, the pIC50 in the data set with MCF7 was 6.33; with T47D [3], 5.02; in [7], 5.17; in the data set with T47D [8] it was 5.29; with T47D [9], 5.34. The IC50 at 72 h in [4] was found to be 26.9 µM. In data set [5], the selectivity ratio turned out to be 57.1. In addition, in [10], the result was Active.
As to `CCN(c1cccc(Cl)c1)S(=O)(=O)C1CC2OC1C(c1ccc(NC(=O)CCCCC[Se]C#N)cc1)=C2c1ccc(O)cc1` (stereo not drawn), the RBA in data set [1] is 5.56%; in [2], 0.09%. Moreover, in the data set listed under Homo sapiens, the Selectivity ratio was 61.8. Further, the pIC50 with MCF7 was 6.55; in the data set with T47D [3], 5.42; in data set [7] it was 5.58; in the data set on T47D [8], 5.72; with T47D [9], 5.52. For the same molecule, the IC50 at 72 h in [4] worked out at 9.23 µM. In addition, the selectivity ratio in [5] came out at 33. Further, the result in data set [10] was Active.
